# Measured values: patent US10676468B2, “N-(3-heteroarylaryl)-4-arylarylcarboxamides and analogs as hedgehog pathway inhibitors and use thereof” (IMPACT Therapeutics, Inc., priority 2012, dated 2020)
# pIC50: −log10 of the molar value.
# Tests used:
# Type in all cases: cell-based, mouse
# [1] = tested on: Hedgehog Signaling Pathway; assay: SAG-induced differentiation of C3H10T1/2 cells into osteoblastic cells, intracellular alkaline phosphatase activity; details: Mus musculus, C3H 10T1/2, 120 h, 1 μM SAG, 5 days, alkaline phosphatase activity (OD405), read-out: IC50 values of compounds that inhibit Hh pathway
# Procedure, shortened: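 Mouse C3H10T1/2 cells were induced with SAG and exposed to compound (10 μM to 1 nM) for 5 days at 37 °C. Cells were lysed in 0.2% Triton, and alkaline phosphatase activity was read as OD405 over 30 min at 37 °C in pH 9.8 substrate buffer. IC50 came from a non-linear fit of background-subtracted OD405 against log concentration.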
# [2] = tested on: Hedgehog Signaling Pathway; assay: SHH-induced differentiation of C3H10T1/2 cells into osteoblastic cells, intracellular alkaline phosphatase activity; details: Mus musculus, C3H 10T1/2, 120 h, 10 nM SHH-N, 5 days, alkaline phosphatase activity (OD405), read-out: IC50 values of compounds that inhibit Hh pathway
# Procedure, shortened: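 Hedgehog pathway inhibition was taken as loss of SHH-driven osteoblastic differentiation. Test compound (10 nM–10 μM) plus SHH-N (10 nM) was applied to C3H10T1/2 cells for 5 days, then lysate phosphatase turnover was measured as the 30-min OD405 change at 37 °C. IC50 was fitted from activity versus log dose.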
# [3] = tested on: Hedgehog Signaling Pathway; assay: Gli-Luc reporter gene cell assay in C3H10T1/2/Gli-Luc cells stimulated with Shh; details: Mus musculus, C3H 10T1/2, 24 h, 30 nM Shh, luciferase activity (RLU), read-out: IC50 values of compounds that inhibit Hh pathway
# Source text: The Application of Reporter Gene Cell Assay for the Determination of the Inhibitory Activity of N-(3-(1H-benzo[d]imidazol-2-yl)-4-chlorophenyl)-2-methyl-4-((2S,6R)-2,6-dimethylmorpholino) benzamide and Analogs on Hedgehog Signaling Pathway
# The binding of Sonic hedgehog (Shh) to its receptor Patched 1 initiates numerous intracellular signal transmission, and leads to the nuclear translocation of Gli and the elevated transcription of Gli target genes. When C3H10T1/2 cells are stably transfected with the Gli-Luc plasmids containing the luciferase gene under the control of Gli response element and stimulated with Shh, the expression of luciferase is elevated. Luciferase activity is indicative of the hedgehog signaling pathway activity. Therefore, the inhibitory activity of compounds on hedgehog signaling pathway can be measured using the luciferase activity when the transfected cells are stimulated with Shh.
# The day before experiment, C3H10T1/2/Gli-Luc cells in log phase of growth were seeded into 96 well plate at a density of 20000 cells per well. The cells were maintained in DMEM (Hyclone) supplemented with 10% FBS (Hyclone) and incubated at 37° C. with 5% CO2 overnight. The compounds to be examined were diluted into 7 different concentrations by series of dilutions (⅓ and 1/10), and the eighth point of concentration is the DMSO control. Those solutions were diluted 100-fold in the fresh growth medium. The cells were taken out of the incubator and the medium of cultured cells were removed. Then, each well was added in an orderly manner with 80 μL of fresh growth medium, 20 μL of medium pre-dilution of positive compound and compounds to be tested, as well as 100 μL of growth medium containing 30 nM of Shh. The cells are returned to the incubator, and incubated for 24 hours.
# Measurement of luciferase activity: After taking the 96 well plate out of the incubator, the supernatants were discarded and the cells were washed twice with PBS. Thereafter, each well was dispensed with 20 μL of lysis buffer (Promega E1531), and the plate was shaken for 30 min at room temperature. Following transferring 5 μL of cell lysate into 384 well plate (Greiner 781074), adding 25 μL of luciferase reaction buffer (Promega E1501) into each well and mixing the plate, the relative light unit (RLU) was immediately captured by VarioSkan Flash.
# The data were analyzed with Prism 5 software (GraphPad). The relative light unit (RLU) was plotted against the log concentration of testing compound, and the obtained plot was fitted with non-linear curve fitting equation to calculate IC50 values. The curve fitting equation is Y (RLU)=Bottom+(Top−Bottom)/(1+10^((X−Log IC50))). X is the logarithm of concentration. Y is the measure of relative light unit (RLU).
# The calculated IC50 value is a measurement of the inhibitory activity of compound to Hh pathway.
SMILES,pIC50 [1],pIC50 [2],pIC50 [3]
"Cc1cc(-c2ccc(Cl)cc2)ccc1C(=O)Nc1ccc(Cl)c(-c2nc3ccccc3[nH]2)c1 [Example 8, N-(3-(1H-benzo[d]imidazol-2-yl)-4-chlorophenyl)-3-methyl-4′-chlorobiphenyl-4-carboxamide]",7.07,8.44,8.34
"Cc1cc(C(=O)Nc2ccc(Cl)c(-c3nc4ccccc4[nH]3)c2)ccc1-c1ccc(C(F)(F)F)cc1 [Example 14, N-(3-(1H-benzo[d]imidazol-2-yl)-4-chlorophenyl)-2-methyl-4′-(trifluoromethyl)biphenyl-4-carboxamide]",7.10,8.26,8.02
"O=C(Nc1ccc(Cl)c(-c2nc3ccccc3[nH]2)c1)c1ccc(-c2ccc(C(F)(F)F)cc2)cc1Cl [Example 18, N-(3-(1H-benzo[d]imidazol-2-yl)-4-chlorophenyl)-3-chloro-4′-(trifluoromethyl)biphenyl-4-carboxamide]",7.22,8.43,8.09
"O=C(Nc1ccc(Cl)c(-c2nc3ccccc3[nH]2)c1)c1ccc(-c2ccc(C(F)(F)F)cc2)cc1 [Example 22, N-(3-(1H-benzo[d]imidazol-2-yl)-4-chlorophenyl)-4′-(trifluoromethyl)biphenyl-4-carboxamide]",6.91,7.82,7.80
"Nc1cc(-c2ccc(C(F)(F)F)cc2)ccc1C(=O)Nc1ccc(Cl)c(-c2nc3ccccc3[nH]2)c1 [Example 25, N-(3-(1H-benzo[d]imidazol-2-yl)-4-chlorophenyl)-3-amino-4′-(trifluoromethyl)biphenyl-4-carboxamide]",6.72,8.26,8.40
"Cc1cc(N2C[C@@H](C)O[C@@H](C)C2)ccc1C(=O)Nc1ccc(Cl)c(-c2nc3ccccc3[nH]2)c1 [Example 32, N-(3-(1H-benzo[d]imidazol-2-yl)-4-chlorophenyl)-2-methyl-4-((2S,6R)-2,6-dimethylmorpholino)benzamide]",7.28,8.10,8.14
"C[C@@H]1CN(c2ccc(C(=O)Nc3ccc(Cl)c(-c4nc5ccccc5[nH]4)c3)cn2)C[C@H](C)O1 [Example 35, N-(3-(1H-benzo[d]imidazol-2-yl)-4-chlorophenyl)-6-((2S,6R)-2,6-dimethylmorpholino)nicotinamide]",7.25,8.00,8.11
"Cc1cc(-c2ccc(C(F)(F)F)cc2)ccc1C(=O)Nc1ccc(C)c(-c2nc3ccccc3[nH]2)c1 [Example 46, N-(3-(1H-benzo[d]imidazol-2-yl)-4-methylphenyl)-3-methyl-4′-(trifluoromethyl)biphenyl-4-carboxamide]",7.05,8.29,8.26
"Cc1cc(-c2ccc(C(F)(F)F)cc2)ccc1C(=O)Nc1ccc(Cl)c(-c2nc3ccccc3n2C)c1 [Example 47, N-(3-(1-methyl-1H-benzo[d]imidazol-2-yl)-4-chlorophenyl)-3-methyl-4′-(trifluoromethyl)biphenyl-4-carboxamide]",6.99,8.48,8.06
"Cc1cc(-c2ccc(C(F)(F)F)cc2)ccc1C(=O)Nc1ccc(Cl)c(-c2nc3cnccc3[nH]2)c1 [Example 49, N-(3-(1H-imidazo[4,5-c]pyridin-2-yl)-4-chlorophenyl)-3-methyl-4′-(trifluoromethyl)biphenyl-4-carboxamide]",6.58,8.62,8.14
"Cc1cc(-c2ccc(C(F)(F)F)cc2)ccc1C(=O)Nc1ccc(Cl)c(-c2ncc(-c3ccccc3)[nH]2)c1 [Example 50, N-(3-(5-phenyl-1H-imidazol-2-yl)-4-chlorophenyl)-3-methyl-4′-(trifluoromethyl)biphenyl-4-carboxamide]",6.90,8.10,8.00
"Cc1cc(-c2ccc(C(F)(F)F)cc2)ccc1C(=O)Nc1ccc(Cl)c(-c2ccccn2)c1 [Example 59, N-(3-(pyridin-2-yl)-4-chlorophenyl)-3-methyl-4′-(trifluoromethyl)biphenyl-4-carboxamide]",6.63,8.12,8.04
"Cc1cc(-c2ccc(C(F)(F)F)cc2)ccc1C(=O)Nc1cncc(-c2nc3ccccc3[nH]2)c1 [Example 60, N-(5-(1H-benzo[d]imidazol-2-yl)pyridin-3-yl)-3-methyl-4′-(trifluoromethyl)biphenyl-4-carboxamide]",6.85,7.74,7.64
"Cc1cc(-c2ccc(C(F)(F)F)cc2)ccc1C(=O)Nc1ccc(Cl)c(-c2ncc(-c3cccs3)[nH]2)c1 [Example 68, N-(3-(5-(thiophen-2-yl)-1H-imidazol-2-yl)-4-chlorophenyl)-3-methyl-4′-(trifluoromethyl)biphenyl-4-carboxamide]",7.16,8.40,8.00

# Compounds with a higher pIC50 [1], results first:
pIC50 [1],pIC50 [2],pIC50 [3],SMILES
7.72,8.59,8.48,"Cc1cc(-c2ccc(C#N)cc2)ccc1C(=O)Nc1ccc(Cl)c(-c2nc3ccccc3[nH]2)c1 [Example 6, N-(3-(1H-benzo[d]imidazol-2-yl)-4-chlorophenyl)-3-methyl-4′-cyanobiphenyl-4-carboxamide]"
7.60,8.46,8.34,"Cc1cc(-c2ccc([N+](=O)[O-])cc2)ccc1C(=O)Nc1ccc(Cl)c(-c2nc3ccccc3[nH]2)c1 [Example 7, N-(3-(1H-benzo[d]imidazol-2-yl)-4-chlorophenyl)-3-methyl-4′-nitrobiphenyl-4-carboxamide]"
7.52,8.64,8.24,"Cc1cc(-c2ccc(C(F)(F)F)cc2)ccc1C(=O)Nc1ccc(Cl)c(-c2nc3ccccc3[nH]2)c1 [Example 21, N-(3-(1H-benzo[d]imidazol-2-yl)-4-chlorophenyl)-3-methyl-4′-(trifluoromethyl)biphenyl-4-carboxamide]"
7.55,8.31,8.08,"Cc1nc(N2C[C@@H](C)O[C@@H](C)C2)ccc1C(=O)Nc1ccc(Cl)c(-c2nc3ccccc3[nH]2)c1 [Example 38, N-(3-(1H-benzo[d]imidazol-2-yl)-4-chlorophenyl)-2-methyl-6-((2S,6R)-2,6-dimethylmorpholino)nicotinamide]"
7.40,7.82,8.09,"COc1ncc(-c2ccc(C(=O)Nc3ccc(Cl)c(-c4nc5ccccc5[nH]4)c3)c(C)c2)cn1 [Example 39, N-(3-(1H-benzo[d]imidazol-2-yl)-4-chlorophenyl)-2-methyl-4-(2-methoxypyrimidin-5-yl)benzamide]"
7.80,8.07,7.92,"Cc1cc(-c2cncnc2)ccc1C(=O)Nc1ccc(Cl)c(-c2nc3ccccc3[nH]2)c1 [Example 43, N-(3-(1H-benzo[d]imidazol-2-yl)-4-chlorophenyl)-2-methyl-4-(pyrimidin-5-yl)benzamide]"
7.62,8.15,8.21,"COc1ccc(-c2ccc(C(=O)Nc3ccc(Cl)c(-c4nc5ccccc5[nH]4)c3)c(C)c2)cn1 [Example 66, N-(3-(1H-benzo[d]imidazol-2-yl)-4-chlorophenyl)-2-methyl-4-(6-methoxypyridin-3-yl)benzamide]"
